US10723765B2, “Beta-hairpin peptidomimetics as selective elastase inhibitors” (POLYPHOR AG, priority 2013, dated 2020)
pIC50: −log10 of the molar value. Non-standard residues stand in square brackets, D forms with d. Residues, ends and D or L forms follow the SMILES beside them. Gly(octyl) = CCCCCCCC[C@H](N)C(=O)O; hTyr = N[C@@H](CCc1ccc(O)cc1)C(=O)O; Aad = N[C@@H](CCCC(=O)O)C(=O)O; AllylGly = C=CC[C@H](N)C(=O)O; Nle = CCCC[C@H](N)C(=O)O

What was measured:
Assay type in all cases: biochemical
[1] = molecular target: T1, porcine pancreatic elastase (Sus scrofa, UniProt P00772); assay: Inhibition of porcine pancreatic elastase (MeOSuc-AAA-pNA hydrolysis); conditions: for pIC50: 15 nM enzyme, 1 mM substrate, 37° C., pH8, read-out: Porcine pancreatic elastase (PPE) IC50; for hNE/PPE selectivity: ratio of PPE IC50 to hNE IC50
T1 construct: purchased Sigma, USA
T1 sequence (P00772 27-266): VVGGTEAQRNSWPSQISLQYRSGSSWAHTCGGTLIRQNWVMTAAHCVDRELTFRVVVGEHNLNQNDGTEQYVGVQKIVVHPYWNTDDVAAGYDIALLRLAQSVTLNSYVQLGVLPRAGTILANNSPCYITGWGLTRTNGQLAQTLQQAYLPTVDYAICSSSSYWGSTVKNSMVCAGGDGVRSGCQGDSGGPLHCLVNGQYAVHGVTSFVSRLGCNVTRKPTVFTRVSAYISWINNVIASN
Protocol: 2.3. Inhibition of Porcine Pancreatic Elastase
The ability of the peptides of the invention to inhibit the hydrolysis activity of porcine pancreatic elastase (Sigma, USA) using the synthetic tripeptidic substrate MeOSuc-AAA-pNA (Bachem, Switzerland) was determined as follows:
(§1) The above substrate (1 mM) and […] porcine pancreatic elastase (15 nM) were incubated at 37° C. with serial dilutions of the peptides (0.5% DMSO final) in assay buffer (50 mM Tris, pH8, 100 mM NaCl, 0.01% Tween20). The release of pNA was followed by monitoring the change in absorbance at 405 nm for 30 minutes. Control assays with the same assay set-up as above, but without peptide, ran linearly. The dose-response data were fitted to the 4-parameter Hill equation providing the IC50 value using Graphpad (Prism 5).

human proteinase 3 = molecular target: T2, human proteinase 3 (Homo sapiens, UniProt P24158); assay: Inhibition of human proteinase 3 (Boc-Ala-Ala-Nva-SBzl); conditions: for pIC50: 10 nM enzyme, 1 mM substrate, 37° C., pH7.4, read-out: Human proteinase 3 (hPr3) IC50; for hNE/hPr3 selectivity: ratio of hPr3 IC50 to hNE IC50
T2 construct: purchased Elastin Products Company, USA
T2 sequence (P24158 28-248): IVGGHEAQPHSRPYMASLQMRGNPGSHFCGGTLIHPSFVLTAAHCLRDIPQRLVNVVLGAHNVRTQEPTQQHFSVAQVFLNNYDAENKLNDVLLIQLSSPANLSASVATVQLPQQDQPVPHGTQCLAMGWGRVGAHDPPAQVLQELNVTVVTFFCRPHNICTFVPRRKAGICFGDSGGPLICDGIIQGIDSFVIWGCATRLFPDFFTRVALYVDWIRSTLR
Protocol: 2.4. Inhibition of Human Proteinase 3
The inactivation of human proteinase 3 (Elastin Products Company, USA) by the peptides of the invention using synthetic tripeptidic substrate Boc-Ala-Ala-Nva-SBzl (Elastin Products Company, USA) was determined as follows:
as §1, with “mM), 4,4′-dithiodipyridine (250 μM)” for “mM)”, “proteinase 3 (10” for “porcine pancreatic elastase (15”, “pH7.4, 150” for “pH8, 100”, “reaction process” for “release of pNA”, “340” for “405”

[2] = molecular target: T3, human neutrophil elastase (Homo sapiens, UniProt P08246); assay: Inhibition of human neutrophil elastase (MeOSuc-AAPV-pNA hydrolysis); conditions: 10 nM enzyme, 0.3 mM substrate, 37° C., pH 8; read-out: Human neutrophil elastase (hNE) IC50
T3 construct: purchased Serva Electrophoresis, Germany
T3 sequence (P08246 30-267): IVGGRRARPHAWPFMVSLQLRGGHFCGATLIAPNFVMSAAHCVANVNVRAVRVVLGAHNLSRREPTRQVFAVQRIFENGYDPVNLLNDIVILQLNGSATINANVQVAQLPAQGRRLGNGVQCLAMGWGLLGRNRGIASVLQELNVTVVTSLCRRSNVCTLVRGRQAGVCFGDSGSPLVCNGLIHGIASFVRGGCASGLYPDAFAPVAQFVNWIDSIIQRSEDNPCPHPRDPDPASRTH
Protocol: 2.2. Inhibition of Human Neutrophil Elastase
The ability of the peptides of the invention to inhibit the hydrolysis activity of human neutrophil elastase (Serva Electrophoresis, Germany) using the synthetic tetrapeptidic substrate MeOSuc-AAPV-pNA (Bachem, Switzerland) was determined as follows:
as §1, with “(0.3” for “(1”, “neutrophil” for “porcine pancreatic”, “(10” for “(15”, “(1%” for “(0.5%”, “pH 8, 300” for “pH8, 100”

SMILES	pIC50 [1]	hNE/PPE selectivity [1]	pIC50 (human proteinase 3)	hNE/hPr3 selectivity (human proteinase 3)	pIC50 [2]
CCCCCCCC[C@@H]1NC(=O)[C@@H]2CCCN2C(=O)[C@H]2CCCN2C(=O)[C@H](CC(N)=O)NC(=O)[C@H](CCCCN)NC(=O)[C@H](CCC(N)=O)NC(=O)[C@@H]2CCCN2C(=O)[C@@H]2CCCN2C(=O)[C@H]([C@@H](C)CC)NC(=O)[C@H](CO)NC(=O)[C@H](C)NC(=O)[C@H]([C@@H](C)O)NC(=O)[C@H](CCC(=O)O)NC1=O [Example 1, Cyclo(-OctGly-Glu-Thr-Ala-Ser-Ile-Pro-Pro-Gln-Lys-Asn-^DPro-Pro-)] (cyclo([Gly(octyl)]ETASIPPQKN[dP]P))	5.81	292	5.74	342	8.28
CC[C@H](C)[C@@H]1NC(=O)[C@H](CO)NC(=O)[C@H](C)NC(=O)[C@H]([C@@H](C)O)NC(=O)[C@H](CCc2ccc(O)cc2)NC(=O)[C@H](CCCNC(=N)N)NC(=O)[C@@H]2CCCN2C(=O)[C@H]2CCCN2C(=O)[C@H]([C@@H](C)O)NC(=O)[C@H](CCCCN)NC(=O)[C@H](CCC(N)=O)NC(=O)[C@@H]2CCCN2C(=O)[C@@H]2CCCN2C1=O [Example 17, Cyclo(-Arg-hTyr-Thr-Ala-Ser-Ile-Pro-Pro-Gln-Lys-Thr-^DPro-Pro-)] (cyclo(R[hTyr]TASIPPQKT[dP]P))	4.18	4256	4.08	5378	7.81
CC[C@H](C)[C@@H]1NC(=O)[C@H](CO)NC(=O)[C@H](C)NC(=O)[C@H]([C@@H](C)O)NC(=O)[C@H](CCC(=O)O)NC(=O)[C@H](CCCNC(=N)N)NC(=O)[C@@H]2CCCN2C(=O)[C@H]2CCCN2C(=O)[C@H](CCCC(N)=O)NC(=O)[C@H](CCCCN)NC(=O)[C@H](Cc2ccc(O)cc2)NC(=O)[C@@H]2CCCN2C(=O)[C@@H]2CCCN2C1=O [Example 12, Cyclo(-Arg-Glu-Thr-Ala-Ser-Ile-Pro-Pro-Tyr-Lys-hGln-^DPro-Pro-)] (cyclo(RETASIPPYK[Aad](NH2)[dP]P))	< 4.00	>10000	< 4.00	>10000	8.00
C=CC[C@@H]1NC(=O)[C@H]([C@@H](C)O)NC(=O)[C@H](CCC(=O)O)NC(=O)[C@H](CCCNC(=N)N)NC(=O)[C@@H]2CCCN2C(=O)[C@H]2CCCN2C(=O)[C@H]([C@@H](C)O)NC(=O)[C@H](CCCCN)NC(=O)[C@H](CCC(N)=O)NC(=O)[C@@H]2CCCN2C(=O)[C@@H]2CCCN2C(=O)[C@H]([C@@H](C)CC)NC(=O)[C@H](CO)NC1=O [Example 7, Cyclo(-Arg-Glu-Thr-AllylGly-Ser-Ile-Pro-Pro-Gln-Lys-Thr-^DPro-Pro-)] (cyclo(RET[AllylGly]SIPPQKT[dP]P))	4.23	3960	4.10	5383	7.83
CC[C@H](C)[C@@H]1NC(=O)[C@H](CO)NC(=O)[C@H](C)NC(=O)[C@H]([C@@H](C)O)NC(=O)[C@H](CCC(=O)O)NC(=O)[C@H](CCCNC(=N)N)NC(=O)[C@@H]2CCCN2C(=O)[C@H]2CCCN2C(=O)[C@H]([C@@H](C)O)NC(=O)[C@H](CCCCN)NC(=O)[C@H](CCC(N)=O)NC(=O)[C@@H]2CCCN2C(=O)[C@@H]2CCCN2C1=O [Example 11, Cyclo(-Arg-Glu-Thr-Ala-Ser-Ile-Pro-Pro-Gln-Lys-Thr-^DPro-Pro-)] (cyclo(RETASIPPQKT[dP]P))	< 4.00	>8000	< 4.00	>8000	7.90
CC[C@H](C)[C@@H]1NC(=O)[C@H](CO)NC(=O)[C@H](C)NC(=O)[C@H]([C@@H](C)O)NC(=O)[C@H](CCC(=O)O)NC(=O)[C@H](CCCNC(=N)N)NC(=O)[C@@H]2CCCN2C(=O)[C@H]2CCCN2C(=O)[C@H](CO)NC(=O)[C@H](CCCCN)NC(=O)[C@H](Cc2ccc(O)cc2)NC(=O)[C@@H]2CCCN2C(=O)[C@@H]2CCCN2C1=O [Example 8, Cyclo(-Arg-Glu-Thr-Ala-Ser-Ile-Pro-Pro-Tyr-Lys-Ser-^DPro-Pro-)] (cyclo(RETASIPPYKS[dP]P))	4.34	2756	4.06	5372	7.79
CC[C@H](C)[C@@H]1NC(=O)[C@H](CO)NC(=O)[C@H](C)NC(=O)[C@H]([C@@H](C)O)NC(=O)[C@H](C(C)C)NC(=O)[C@H](CCCNC(=N)N)NC(=O)[C@@H]2CCCN2C(=O)[C@H]2CCCN2C(=O)[C@H]([C@@H](C)O)NC(=O)[C@H](CCCCN)NC(=O)[C@H](CCC(N)=O)NC(=O)[C@@H]2CCCN2C(=O)[C@@H]2CCCN2C1=O [Example 16, Cyclo(-Arg-Val-Thr-Ala-Ser-Ile-Pro-Pro-Gln-Lys-Thr-^DPro-Pro-)] (cyclo(RVTASIPPQKT[dP]P))	< 4.00	>3788	< 4.00	>3788	7.58
CCCC[C@@H]1NC(=O)[C@H](CCCNC(=N)N)NC(=O)[C@@H]2CCCN2C(=O)[C@H]2CCCN2C(=O)[C@H](Cc2ccc(O)cc2)NC(=O)[C@H](CCCCN)NC(=O)[C@H](CCC(N)=O)NC(=O)[C@@H]2CCCN2C(=O)[C@@H]2CCCN2C(=O)[C@H]([C@@H](C)CC)NC(=O)[C@H](CO)NC(=O)[C@H](C)NC(=O)[C@H]([C@@H](C)O)NC1=O [Example 6, Cyclo(-Arg-Nle-Thr-Ala-Ser-Ile-Pro-Pro-Gln-Lys-Tyr-^DPro-Pro-)] (cyclo(R[Nle]TASIPPQKY[dP]P))	5.57	174	5.63	153	7.81
